Measurements: paper PMC5218480 (PLoS ONE, 2017)

Tested on: MV-4-11 cells
Assay: Gene expression microarray analysis (Affymetrix PrimeView) and GSEA
Assay type: cell-based, human
Design: RFU PODN (11730768_x_at) / Fold change /veh PODN (11730768_x_at) / RFU LINC00158 (11744669_a_at) / Fold change /veh LINC00158 (11744669_a_at) / RFU DUSP10 (11751237_a_at) / Fold change /veh DUSP10 (11751237_a_at) / RFU ID3 (11757404_x_at) / Fold change /veh ID3 (11757404_x_at) / RFU PLEKHG5 (11737974_s_at) / Fold change /veh PLEKHG5 (11737974_s_at) / RFU LRRC4B (11730491_at) / Fold change /veh LRRC4B (11730491_at) / RFU GIMAP4 (11747438_a_at) / Fold change /veh GIMAP4 (11747438_a_at) / RFU KRT8 (11758183_x_at) / Fold change /veh KRT8 (11758183_x_at) / RFU CNN1 (11734310_a_at) / Fold change /veh CNN1 (11734310_a_at) / RFU VPS37D (11726825_at) / Fold change /veh VPS37D (11726825_at) / RFU C10orf10 (11716522_x_at) / Fold change /veh C10orf10 (11716522_x_at) / RFU KIR2DL2 /// KIR2DL4 /// KIR2DL5A /// KIR2DL5B /// KIR2DS1 /// KIR2DS2 /// KIR2DS3 /// KIR2DS4 /// KIR3DL3 /// KIR3DL3 /// KIR3DS1 (11738374_at) / Fold change /veh KIR2DL2 /// KIR2DL4 /// KIR2DL5A /// KIR2DL5B /// KIR2DS1 /// KIR2DS2 /// KIR2DS3 /// KIR2DS4 /// KIR3DL3 /// KIR3DL3 /// KIR3DS1 (11738374_at) / RFU C1QL1 (11718748_at) / Fold change /veh C1QL1 (11718748_at) / RFU TMPRSS4 (11747572_a_at) / Fold change /veh TMPRSS4 (11747572_a_at) / RFU HAMP (11756126_x_at) / Fold change /veh HAMP (11756126_x_at) / RFU RNFT2 (11725882_a_at) / Fold change /veh RNFT2 (11725882_a_at) / RFU NR4A2 (11747474_a_at) / Fold change /veh NR4A2 (11747474_a_at) / RFU ABCC12 (11746883_a_at) / Fold change /veh ABCC12 (11746883_a_at) / RFU TMEM136 (11760407_x_at) / Fold change /veh TMEM136 (11760407_x_at) / RFU CLDN22 /// WWC2 (11732394_at) / Fold change /veh CLDN22 /// WWC2 (11732394_at) / RFU HLA-DPB1 (11760878_x_at) / Fold change /veh HLA-DPB1 (11760878_x_at) / RFU SPINT1 (11716480_a_at) / Fold change /veh SPINT1 (11716480_a_at) / RFU GAP43 (11754022_s_at) / Fold change /veh GAP43 (11754022_s_at) / RFU A4GNT (11735810_at) / Fold change /veh A4GNT (11735810_at) / RFU PRB3 (11715151_x_at) / Fold change /veh PRB3 (11715151_x_at) / RFU TUBB4B (11761932_at) / Fold change /veh TUBB4B (11761932_at) / RFU CAPN14 (11732068_a_at) / Fold change /veh CAPN14 (11732068_a_at) / RFU TMCC2 (11721928_a_at) / Fold change /veh TMCC2 (11721928_a_at) / RFU IRGQ (11745062_a_at) / Fold change /veh IRGQ (11745062_a_at) / RFU FAM174B (11720279_a_at) / Fold change /veh FAM174B (11720279_a_at) / RFU TMPRSS4 (11748680_a_at) / Fold change /veh TMPRSS4 (11748680_a_at) / RFU FAM212B (11763350_a_at) / Fold change /veh FAM212B (11763350_a_at) / RFU PLEKHG5 (11743358_a_at) / Fold change /veh PLEKHG5 (11743358_a_at) / RFU ZSCAN30 (11745921_a_at) / Fold change /veh ZSCAN30 (11745921_a_at) / RFU CMKLR1 (11741424_a_at) / Fold change /veh CMKLR1 (11741424_a_at) / RFU LOC101060620 /// MAPK8IP1 (11723275_at) / Fold change /veh LOC101060620 /// MAPK8IP1 (11723275_at) / RFU SPTSSB (11747773_x_at) / Fold change /veh SPTSSB (11747773_x_at) / RFU PRSS12 (11739890_at) / Fold change /veh PRSS12 (11739890_at) / RFU BIN1 (11741810_x_at) / Fold change /veh BIN1 (11741810_x_at) / RFU WNT11 (11732464_a_at) / Fold change /veh WNT11 (11732464_a_at) / RFU C10orf10 (11716521_a_at) / Fold change /veh C10orf10 (11716521_a_at) / RFU C5orf56 (11738089_at) / Fold change /veh C5orf56 (11738089_at) / RFU CYB561 (11721691_x_at) / Fold change /veh CYB561 (11721691_x_at) / RFU ANKRD19P (11752326_a_at) / Fold change /veh ANKRD19P (11752326_a_at) / RFU OR2T12 /// OR2T33 /// OR2T8 (11738714_s_at) / Fold change /veh OR2T12 /// OR2T33 /// OR2T8 (11738714_s_at) / RFU VCAN (11748164_a_at) / Fold change /veh VCAN (11748164_a_at) / RFU JSRP1 (11732532_at) / Fold change /veh JSRP1 (11732532_at) / RFU KRTAP10-11 (11738290_x_at) / Fold change /veh KRTAP10-11 (11738290_x_at) / RFU MYO3A (11730013_a_at) / Fold change /veh MYO3A (11730013_a_at) / RFU EBF3 (11725865_a_at) / Fold change /veh EBF3 (11725865_a_at) / RFU CAMK2N1 (11719241_x_at) / Fold change /veh CAMK2N1 (11719241_x_at) / RFU C5orf56 (11738088_a_at) / Fold change /veh C5orf56 (11738088_a_at) / RFU OLFML3 (11715873_a_at) / Fold change /veh OLFML3 (11715873_a_at) / RFU LOC100653217 /// NTM (11731650_a_at) / Fold change /veh LOC100653217 /// NTM (11731650_a_at) / RFU MAPK11 (11762145_a_at) / Fold change /veh MAPK11 (11762145_a_at) / RFU FIZ1 (11724087_x_at) / Fold change /veh FIZ1 (11724087_x_at) / RFU OASL (11726364_x_at) / Fold change /veh OASL (11726364_x_at) / RFU SOX15 (11748057_x_at) / Fold change /veh SOX15 (11748057_x_at) / RFU CD79A (11719716_a_at) / Fold change /veh CD79A (11719716_a_at) / RFU HIST1H1D (11736915_at) / Fold change /veh HIST1H1D (11736915_at) / RFU CASKIN2 (11723855_a_at) / Fold change /veh CASKIN2 (11723855_a_at) / RFU LOC730098 (11760151_x_at) / Fold change /veh LOC730098 (11760151_x_at) / RFU OR4N2 (11742367_at) / Fold change /veh OR4N2 (11742367_at) / RFU PRRT2 (11749266_a_at) / Fold change /veh PRRT2 (11749266_a_at) / RFU SNX32 (11753110_a_at) / Fold change /veh SNX32 (11753110_a_at) / RFU CDHR5 (11726645_a_at) / Fold change /veh CDHR5 (11726645_a_at) / RFU RCAN1 (11760418_a_at) / Fold change /veh RCAN1 (11760418_a_at) / RFU FAM167A (11723789_a_at) / Fold change /veh FAM167A (11723789_a_at) / RFU FAM26E (11764081_at) / Fold change /veh FAM26E (11764081_at) / RFU ISYNA1 (11749810_s_at) / Fold change /veh ISYNA1 (11749810_s_at) / RFU ACY1 (11761880_at) / Fold change /veh ACY1 (11761880_at) / RFU 11764098_at / Fold change /veh 11764098_at / RFU SAMD14 (11745864_x_at) / Fold change /veh SAMD14 (11745864_x_at) / RFU NPB (11741838_a_at) / Fold change /veh NPB (11741838_a_at) / RFU TMPRSS6 (11731388_a_at) / Fold change /veh TMPRSS6 (11731388_a_at) / RFU KRTAP10-2 (11738614_at) / Fold change /veh KRTAP10-2 (11738614_at) / RFU ARHGAP8 /// PRR5-ARHGAP8 (11727945_x_at) / Fold change /veh ARHGAP8 /// PRR5-ARHGAP8 (11727945_x_at) / RFU KRTAP5-7 /// NADSYN1 (11734609_at) / Fold change /veh KRTAP5-7 /// NADSYN1 (11734609_at) / RFU RASL12 (11751679_a_at) / Fold change /veh RASL12 (11751679_a_at) / RFU CDKN2B (11736163_a_at) / Fold change /veh CDKN2B (11736163_a_at) / RFU PRF1 (11729649_at) / Fold change /veh PRF1 (11729649_at) / RFU, ZNF638 /// ZNF638-IT1 / Fold change vs veh, ZNF638 /// ZNF638-IT1 / RFU, PANK3 / Fold change vs veh, PANK3 / RFU, SH3YL1 / Fold change vs veh, SH3YL1 / RFU, ZEB2 / Fold change vs veh, ZEB2 / RFU, NRIP1 / Fold change vs veh, NRIP1 / RFU, PTTG1IP / Fold change vs veh, PTTG1IP / RFU, CAPN2 / Fold change vs veh, CAPN2 / RFU, MED14 / Fold change vs veh, MED14 / RFU, SNORA58 / Fold change vs veh, SNORA58 / RFU, C1orf63 / Fold change vs veh, C1orf63 / RFU, LRRFIP1 / Fold change vs veh, LRRFIP1 / RFU, NDUFAF7 / Fold change vs veh, NDUFAF7 / RFU, SLC12A2 / Fold change vs veh, SLC12A2 / RFU, IBTK / Fold change vs veh, IBTK / RFU, ESF1 / Fold change vs veh, ESF1 / Fold change vs veh, TMEM50B / RFU, TAOK1 / Fold change vs veh, TAOK1 / RFU, ACBD3 / Fold change vs veh, ACBD3 / RFU, TMA16 / Fold change vs veh, TMA16 / RFU, RWDD3 / Fold change vs veh, RWDD3 / RFU, BCAT1 / Fold change vs veh, BCAT1 / RFU, EDEM3 / Fold change vs veh, EDEM3 / RFU, TMEM33 / Fold change vs veh, TMEM33 / RFU, WDR75 / Fold change vs veh, WDR75 / RFU, AHCTF1 / Fold change vs veh, AHCTF1 / RFU, TFRC / Fold change vs veh, TFRC / RFU, ZDHHC17 / Fold change vs veh, ZDHHC17 / RFU, NOM1 / Fold change vs veh, NOM1 / RFU, ARL8B / Fold change vs veh, ARL8B / RFU, ZBTB11 / Fold change vs veh, ZBTB11 / RFU, TAMM41 / Fold change vs veh, TAMM41 / RFU, KIAA1704 /// LOC100996395 / Fold change vs veh, KIAA1704 /// LOC100996395 / RFU, ING1 / Fold change vs veh, ING1 / RFU, TRMT61B / Fold change vs veh, TRMT61B / RFU, FUBP3 / Fold change vs veh, FUBP3 / RFU, TP53 / Fold change vs veh, TP53 / RFU, TNKS2 / Fold change vs veh, TNKS2 / RFU, ZFP14 / Fold change vs veh, ZFP14 / RFU, ACTR2 / Fold change vs veh, ACTR2 / RFU, PPP3R1 / Fold change vs veh, PPP3R1 / RFU, PIK3R1 / Fold change vs veh, PIK3R1 / RFU, HNRNPA1 / Fold change vs veh, HNRNPA1 / RFU, RNF170 / Fold change vs veh, RNF170 / RFU, ZNF28 / Fold change vs veh, ZNF28 / RFU, RNGTT / Fold change vs veh, RNGTT / RFU, OGT / Fold change vs veh, OGT / RFU, BRD1 / Fold change vs veh, BRD1 / RFU, MARS / Fold change vs veh, MARS / RFU, ZNF655 / Fold change vs veh, ZNF655 / RFU, FAHD1 / Fold change vs veh, FAHD1 / RFU, BDP1 / Fold change vs veh, BDP1 / RFU, LRRCC1 / Fold change vs veh, LRRCC1 / RFU, ARID1A / Fold change vs veh, ARID1A / RFU, ZNF146 / Fold change vs veh, ZNF146 / RFU, ZNF330 / Fold change vs veh, ZNF330 / RFU, GPN3 / Fold change vs veh, GPN3 / RFU, C9orf123 / Fold change vs veh, C9orf123 / RFU, N4BP2L2 / Fold change vs veh, N4BP2L2 / RFU, ARFIP1 / Fold change vs veh, ARFIP1 / RFU, FAM179B / Fold change vs veh, FAM179B / RFU, BCL10 / Fold change vs veh, BCL10 / RFU, UHRF1BP1L / Fold change vs veh, UHRF1BP1L / RFU, BET1 / Fold change vs veh, BET1 / RFU, CNOT2 / Fold change vs veh, CNOT2 / RFU, ZNF268 / Fold change vs veh, ZNF268 / Fold change vs veh, ZNF507 / RFU, DGCR2 / Fold change vs veh, DGCR2 / RFU, WDSUB1 / Fold change vs veh, WDSUB1 / Fold change vs veh, HSP90B1 /// MIR3652 / RFU, ADSS / Fold change vs veh, ADSS / RFU, GK / Fold change vs veh, GK / RFU, ZNF148 / Fold change vs veh, ZNF148 / RFU, TAF9 / Fold change vs veh, TAF9 / RFU, SLC1A5 / Fold change vs veh, SLC1A5 / RFU, SLMO2 / Fold change vs veh, SLMO2 / RFU, ABCC4 / Fold change vs veh, ABCC4 / RFU, LOC101060439 /// RAP1B / Fold change vs veh, LOC101060439 /// RAP1B / RFU, RFX7 / Fold change vs veh, RFX7 / RFU, GTPBP10 / Fold change vs veh, GTPBP10 / RFU, CNEP1R1 / Fold change vs veh, CNEP1R1 / RFU, BIVM-ERCC5 /// ERCC5 / Fold change vs veh, BIVM-ERCC5 /// ERCC5 / RFU, ILF3 / Fold change vs veh, ILF3 / RFU 11762660_at / Fold change /veh 11762660_at / RFU VCAN (11757783_s_at) / Fold change /veh VCAN (11757783_s_at) / RFU DDX43 (11728927_at) / Fold change /veh DDX43 (11728927_at) / RFU KRT8 (11758188_x_at) / Fold change /veh KRT8 (11758188_x_at) / RFU NKD1 (11759106_at) / Fold change /veh NKD1 (11759106_at) / RFU SRD5A1 (11742802_a_at) / Fold change /veh SRD5A1 (11742802_a_at) / RFU TPSAB1 /// TPSB2 (11721975_s_at) / Fold change /veh TPSAB1 /// TPSB2 (11721975_s_at) / RFU GSTM3 (11746129_a_at) / Fold change /veh GSTM3 (11746129_a_at) / RFU IL23R (11737362_x_at) / Fold change /veh IL23R (11737362_x_at) / RFU TMEM51 (11727254_a_at) / Fold change /veh TMEM51 (11727254_a_at) / RFU PIWIL2 (11732686_x_at) / Fold change /veh PIWIL2 (11732686_x_at) / RFU ORM1 (11744905_x_at) / Fold change /veh ORM1 (11744905_x_at) / RFU CCDC152 (11743942_at) / Fold change /veh CCDC152 (11743942_at) / RFU ECM1 (11717891_a_at) / Fold change /veh ECM1 (11717891_a_at) / RFU IL23R (11748794_a_at) / Fold change /veh IL23R (11748794_a_at) / RFU TNFAIP8L3 (11732012_x_at) / Fold change /veh TNFAIP8L3 (11732012_x_at) / RFU MBOAT4 (11741988_at) / Fold change /veh MBOAT4 (11741988_at) / RFU 11764193_at / Fold change /veh 11764193_at / RFU TMEM53 (11763286_at) / Fold change /veh TMEM53 (11763286_at) / RFU MAGEB2 (11727129_at) / Fold change /veh MAGEB2 (11727129_at) / RFU TMEM200A (11744735_a_at) / Fold change /veh TMEM200A (11744735_a_at) / RFU CCDC152 (11751479_a_at) / Fold change /veh CCDC152 (11751479_a_at) / RFU FAM211A (11726209_a_at) / Fold change /veh FAM211A (11726209_a_at) / RFU RGS16 (11746705_a_at) / Fold change /veh RGS16 (11746705_a_at) / RFU VCAN (11755009_s_at) / Fold change /veh VCAN (11755009_s_at) / RFU RHOB (11743442_s_at) / Fold change /veh RHOB (11743442_s_at) / RFU RGS16 (11720943_a_at) / Fold change /veh RGS16 (11720943_a_at) / RFU RGS16 (11720944_at) / Fold change /veh RGS16 (11720944_at) / RFU, VPS4B / Fold change vs veh, VPS4B / RFU, CREB1 / Fold change vs veh, CREB1 / RFU, DNAJC13 / Fold change vs veh, DNAJC13 / RFU, GNAQ / Fold change vs veh, GNAQ / RFU, CDK5R1 / Fold change vs veh, CDK5R1 / RFU, ZRANB3 / Fold change vs veh, ZRANB3 / RFU, CUL4A / Fold change vs veh, CUL4A / RFU, CCNY / Fold change vs veh, CCNY / RFU, UFL1 / Fold change vs veh, UFL1 / RFU, COG3 / Fold change vs veh, COG3 / RFU, DIAPH2 / Fold change vs veh, DIAPH2 / RFU, SKA2 / Fold change vs veh, SKA2 / RFU, AFF3 / Fold change vs veh, AFF3 / RFU, LMF1 / Fold change vs veh, LMF1 / RFU, IPO11 / Fold change vs veh, IPO11 / RFU, DFFB / Fold change vs veh, DFFB / RFU, FOXP1 / Fold change vs veh, FOXP1 / RFU, CARD8 / Fold change vs veh, CARD8 / RFU, STRN3 / Fold change vs veh, STRN3 / RFU, ADK / Fold change vs veh, ADK / RFU, RASSF2 / Fold change vs veh, RASSF2 / RFU, WIPF1 / Fold change vs veh, WIPF1 / RFU, LARP1B / Fold change vs veh, LARP1B / RFU, RASA1 / Fold change vs veh, RASA1 / RFU, RB1 / Fold change vs veh, RB1 / RFU, PPFIA1 / Fold change vs veh, PPFIA1 / RFU, MAT2A / Fold change vs veh, MAT2A / RFU, CCT5 / Fold change vs veh, CCT5 / RFU, WDR92 / Fold change vs veh, WDR92 / RFU, CUX1 / Fold change vs veh, CUX1 / RFU, TTC7A / Fold change vs veh, TTC7A / RFU, TMEM135 / Fold change vs veh, TMEM135 / RFU, DEPTOR / Fold change vs veh, DEPTOR / RFU, CPM / Fold change vs veh, CPM / RFU, DNAJB6 / Fold change vs veh, DNAJB6 / RFU, CACNA2D3 / Fold change vs veh, CACNA2D3 / RFU, DTX4 / Fold change vs veh, DTX4 / RFU, TFCP2 / Fold change vs veh, TFCP2 / RFU, GMCL1 /// GMCL1P1 / Fold change vs veh, GMCL1 /// GMCL1P1 / RFU, AEBP2 / Fold change vs veh, AEBP2 / RFU, SNHG1 /// SNORD22 /// SNORD25 /// SNORD26 /// SNORD27 /// SNORD28 /// SNORD29 /// SNORD31 / Fold change vs veh, SNHG1 /// SNORD22 /// SNORD25 /// SNORD26 /// SNORD27 /// SNORD28 /// SNORD29 /// SNORD31 / Fold change (Aza/veh), C12orf56 (ProbeSet 11735607_a_at) / Fold change (ACY-1035/veh), C12orf56 (ProbeSet 11735607_a_at) / Fold change (Aza/veh), FGFR1OP (ProbeSet 11751329_s_at) / Fold change (ACY-1035/veh), FGFR1OP (ProbeSet 11751329_s_at) / Fold change (Aza/veh), VPS36 (ProbeSet 11739960_a_at) / Fold change (ACY-1035/veh), VPS36 (ProbeSet 11739960_a_at) / RFU SYPL1 (11715823_x_at) / Fold change /veh SYPL1 (11715823_x_at) / RFU IGFBP7 (11715501_s_at) / Fold change /veh IGFBP7 (11715501_s_at) / RFU REEP3 (11722064_at) / Fold change /veh REEP3 (11722064_at) / RFU IGLL1 (11728026_x_at) / Fold change /veh IGLL1 (11728026_x_at): dose or concentration left out as unconfirmed
Conditions: MV-4-11 cells, 48 hours

Nc1ncn([C@@H]2O[C@H](CO)[C@@H](O)[C@H]2O)c(=O)n1 [azacitidine]
RFU TMPRSS4 (11747572_a_at): 53.17 RFU
